Results on three molecules are retold here after patent US12678501B2, “Modulating permeability of the blood cerebrospinal fluid barrier” (MEMORIAL SLOAN-KETTERING CANCER CENTER, priority 2015, dated 2026).

For one experiment, the system named is LLC-LeptoM cells. In words: Leptomeningeal metastasis model, LLC-LeptoM cells, BLI. The format is in vivo, mouse. The conditions noted are these: systemic treatment from Day 1, BLI on day 14, vs vehicle. The method, then:
(§1) FIG. 11A-11C. C3aR as a therapeutic target in leptomeningeal metastasis. (A) 2,000 MDA231-LeptoM cells were introduced into the cisterna magna on day 0. Mice were treated with 10 mg/kg C3aR agonist (Ag), 10 mg/kg antagonist (Ant) or vehicle (Veh) I.P. twice weekly, tumor cell growth was monitored by BLI. n=10 mice per group. ****p<0.0001 (B) Survival analysis of mice treated in (A). (C) 2,000 MDA231-LeptoM, PC9-LeptoM, HCC1954-LeptoM or LCC-LeptoM cells were introduced into the CSF on day 0 and treated with Veh or Ant as described in (A). n=10 mice per group. BLI on day 14 is illustrated. *p<0.05; **p<0.01; *** p<0.001.
(§2) Cells corresponding to each of these models were inoculated into the leptomeningeal space of recipient mice on Day 0. Daily systemic treatment with C3aR antagonist SB290157 began on Day 1. Bioluminescent imaging to quantitate tumor cell growth is shown for each of the models, FIG. 11C. […] In this approach, maintenance of B-CSF-B integrity inhibits cancer cell survival by inhibiting cancer cell access to plasma components, including protein, growth factors and metabolic intermediates.

Another experiment deals with HCC1954-LeptoM cells. As to the kind of experiment: Leptomeningeal metastasis model, HCC1954-LeptoM cells, BLI. The format is in vivo, mouse. The conditions noted are these: systemic treatment from Day 1, BLI on day 14, vs vehicle. The method, then:
as §1, §2

The next experiment relates to MDA231-LeptoM cells. In words: Leptomeningeal metastasis model, MDA231-LeptoM cells into cisterna magna, BLI. The experiment is classed as in vivo, mouse. The conditions noted are these: vs vehicle; for tumor growth within the leptomeninges (bioluminescent imaging): 2,000 MDA LeptoM cells into cisterna magna. The method, then:
as §1
In light of the cancer cell dependence on C3 for growth within the leptomeningeal space, as well as C3aR's importance in maintenance of CP barrier function, we elected to assay C3aR antagonist as well as agonists in models of leptomeningeal metastasis. First, 2,000 MDA LeptoM were injected into the cisterna magna of recipient mice. Next, treatment with either vehicle, C3aR agonist or antagonist was initiated. Tumor growth was followed with bioluminescent imaging FIG. 11A.
as §2

A further experiment relates to PC9-LeptoM cells. In words: Leptomeningeal metastasis model, PC9-LeptoM cells, BLI. The experiment is classed as in vivo, mouse. The conditions noted are these: systemic treatment from Day 1, BLI on day 14, vs vehicle. The method, then: as §1, §2
Experiment [1] in a line: Amphiregulin ELISA in CSF and plasma after parenteral C3a. The format is in vivo. The conditions noted are these: mouse models, after parenteral administration. The text has this: FIG. 10A-10D. C3 conditioned CSF by opening the blood-CSF-barrier. (A) Commercial dot-blot array was employed to measure proteins present in CSF of two patients without leptomeningeal metastasis, who later developed leptomeningeal metastasis. […] (B) LLC-LeptoM cells instilled into the cisterna magna of C3aR wild-type (^+/+) or knock-out (^−/−) syngenic mice. Tumor growth was monitored by BLI. (C) ELISA for amphiregulin of CSF from suspected of leptomeningeal metastasis. Final clinical diagnosis is indicated. (D) Mice were parenterally pretreated with recombinant mouse […] or vehicle (green) as described in FIG. 7E. Amphiregulin was measured by ELISA in CSF and plasma.
Leptomeningeal metastasis alters the composition of the CSF (FIG. 10A), including the growth factor amphiregulin (FIG. 10C). Cancer cell growth within the leptomeningeal space is improved in the presence of the C3aR in our models of leptomeningeal metastasis (FIG. 10B) after parenteral administration of C3a, serum amphiregulin is elevated within the CSF in mouse models.

Experiment [2] concerns choroid plexus epithelial cells. In words: Tight junction staining (ZO-1, claudin immunofluorescence) of choroid plexus. The conditions noted are these: mouse choroid plexus treated 2 hours prior to fixation. An excerpt:
(§3) FIG. 7A-7F. C3aR activation alters B-CSF-barrier integrity. (A) Immunofluorescence of mouse choroid plexus for C3aR (red) and the apically expressed SPAK (green). (B) Trans-epithelial resistance in response to C3a in an in vitro model of B-CSF-B employing human choroid plexus epithelial cells (HuCPEpi). (C) Conditioned medium from MDA231 Parental cells (green) supplemented with recombinant mouse C3a (open circles) or vehicle (closed circles) was used to treat the monolayer prior to TEER measurements. (D) Conditioned medium from MDA231 LeptoM cells was not treated with antibody (closed circle), or immunodepleted with anti-C3 (open circles) or IgG control (black squares) prior to TEER measurements. (E) Mice (C3aR^+/+ or ^−/−) were parenterally pretreated with recombinant mouse C3a or vehicle prior to intracardiac infusion of mixed fluorescently labeled dextrans. 30 minutes later, CSF and blood were sampled and analyzed by fluorimetry. In the bar graphs, for each dextran size, fluorescence in animals treated with rmC3a is represented by the bar on the right (vehicle represented by the bar on the left). […]
(§4) The passage of larger molecules was assessed through the use of fluorescently labeled Dextran passage in vivo. […] Thirty minutes after this treatment, CSF was sampled by cisternal tap, and presence of the derivatized dextran was assayed by fluorescence. […]

The next experiment has as its target T1, C3aR (Mus musculus, UniProt O09047).
T1 construct: from tissue; host or cells: living mice (in vivo)
T1 sequence (O09047 1-477): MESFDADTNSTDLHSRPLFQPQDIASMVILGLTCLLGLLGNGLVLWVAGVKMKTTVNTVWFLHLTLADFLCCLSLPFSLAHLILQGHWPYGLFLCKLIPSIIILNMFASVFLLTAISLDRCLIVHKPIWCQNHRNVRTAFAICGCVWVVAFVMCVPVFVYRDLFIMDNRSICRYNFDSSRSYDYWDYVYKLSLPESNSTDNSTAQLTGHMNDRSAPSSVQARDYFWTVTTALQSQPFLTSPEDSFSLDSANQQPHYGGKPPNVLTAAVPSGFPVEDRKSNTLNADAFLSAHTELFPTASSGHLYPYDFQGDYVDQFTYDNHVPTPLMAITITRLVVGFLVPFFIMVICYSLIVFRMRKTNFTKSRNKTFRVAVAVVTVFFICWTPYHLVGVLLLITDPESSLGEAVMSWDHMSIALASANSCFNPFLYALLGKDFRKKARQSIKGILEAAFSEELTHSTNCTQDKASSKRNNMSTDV
As to the kind of experiment: Passage of fluorescently labeled dextrans from blood to CSF in vivo. The conditions noted are these: dextrans of 40 kDa and smaller; CSF sampled 30 minutes after intracardiac dextran; C3aR-dependent (wild type vs knockout mice).
Excerpt: as §3, §4

Experiment [3] has as its system human choroid plexus epithelial cells (HuCPEpi). As to the kind of experiment: Trans-epithelial electrical resistance (TEER) in in vitro model of B-CSF-B. The conditions noted are these: HuCPEpithelial cells on laminin-coated transwells, after addition of recombinant C3a. The experiment is classed as cell-based. An excerpt:
FIG. 7A-7F. C3aR activation alters B-CSF-barrier integrity. (A) Immunofluorescence of mouse choroid plexus for C3aR (red) and the apically expressed SPAK (green). (B) Trans-epithelial resistance in response to C3a in an in vitro model of B-CSF-B employing human choroid plexus epithelial cells (HuCPEpi). (C) Conditioned medium from MDA231 Parental cells (green) supplemented with recombinant mouse C3a (open circles) or vehicle (closed circles) was used to treat the monolayer prior to TEER measurements. (D) Conditioned medium from MDA231 LeptoM cells was not treated with antibody (closed circle), or immunodepleted with anti-C3 (open circles) or IgG control (black squares) prior to TEER measurements. (E) Mice (C3aR^+/+ or ^−/−) were parenterally pretreated with recombinant mouse C3a or vehicle prior to intracardiac infusion of mixed fluorescently labeled dextrans. 30 minutes later, CSF and blood were sampled and analyzed by fluorimetry. In the bar graphs, for each dextran size, fluorescence in animals treated with rmC3a is represented by the bar on the right (vehicle represented by the bar on the left). (F) Mouse choroid plexus treated with C3a or vehicle for 2 hours prior to fixation and staining for ZO-1 and Claudin.
To address the hypothesis that C3aR might function similarly in the choroid plexus, we first established the presence of C3aR on choroid plexus epithelium (FIG. 7A). […]

On to `N=C(N)NCCC[C@H](NC(=O)COCC(c1ccccc1)c1ccccc1)C(=O)O` [SB290157, N2-[2-(2,2-diphenylethoxy)acetyl]-L-arginine, 2,2,2-trifluoroacetate], for which the “leptomeningeal tumor growth (BLI)” value is on record as “less leptomeningeal tumor growth” with LLC-LeptoM cells; “less leptomeningeal tumor growth” with HCC1954-LeptoM cells; “less leptomeningeal tumor growth” in the experiment with MDA231-LeptoM cells (MDA231 model, systemic treatment from Day 1, BLI on day 14); “less leptomeningeal tumor growth” in the experiment with PC9-LeptoM cells. Also, the “tumor growth within the leptomeninges (bioluminescent imaging)” value in the experiment with MDA231-LeptoM cells (10 mg/kg I.P. twice weekly) is recorded as “slowed”. Further, in the experiment on MDA231-LeptoM cells (MDA LeptoM model, 10 mg/kg I.P. twice weekly), the survival result is recorded as “survival benefit”.

In the case of `O=C(NC1CCN(C(=O)CCc2cccnc2)CC1)C(c1ccccc1)C1CCCCC1` (stereo not drawn) [C3aR agonist, α-cyclohexyl-N-[1-[1-oxo-3-(3-pyridinyl)propyl]-4-piperidinyl]-benzeneacetamide], the “tumor growth within the leptomeninges (bioluminescent imaging)” value in the experiment with MDA231-LeptoM cells (10 mg/kg I.P. twice weekly) is given as “accelerated”.

For the molecule “recombinant C3a: recombinant C3a, hydrolysis fragment of complement C3, ligand of the C3aR receptor”, in experiment [1], the “amphiregulin within the CSF” value is on record as “elevated”. The “tight junctions between choroid plexus epithelial cells (claudin immunofluorescence)” value in experiment [2] is reported as “disorganization of tight junctions”. Further, the “passage of dextrans from blood to CSF” value with C3aR is “increased”. In addition, the “resistance across the monolayer (TEER)” value in experiment [3] is recorded as “reduced”.
